The test has as its target T1, Progesterone receptor (Homo sapiens, UniProt P06401).
T1 sequence (P06401 whole entry): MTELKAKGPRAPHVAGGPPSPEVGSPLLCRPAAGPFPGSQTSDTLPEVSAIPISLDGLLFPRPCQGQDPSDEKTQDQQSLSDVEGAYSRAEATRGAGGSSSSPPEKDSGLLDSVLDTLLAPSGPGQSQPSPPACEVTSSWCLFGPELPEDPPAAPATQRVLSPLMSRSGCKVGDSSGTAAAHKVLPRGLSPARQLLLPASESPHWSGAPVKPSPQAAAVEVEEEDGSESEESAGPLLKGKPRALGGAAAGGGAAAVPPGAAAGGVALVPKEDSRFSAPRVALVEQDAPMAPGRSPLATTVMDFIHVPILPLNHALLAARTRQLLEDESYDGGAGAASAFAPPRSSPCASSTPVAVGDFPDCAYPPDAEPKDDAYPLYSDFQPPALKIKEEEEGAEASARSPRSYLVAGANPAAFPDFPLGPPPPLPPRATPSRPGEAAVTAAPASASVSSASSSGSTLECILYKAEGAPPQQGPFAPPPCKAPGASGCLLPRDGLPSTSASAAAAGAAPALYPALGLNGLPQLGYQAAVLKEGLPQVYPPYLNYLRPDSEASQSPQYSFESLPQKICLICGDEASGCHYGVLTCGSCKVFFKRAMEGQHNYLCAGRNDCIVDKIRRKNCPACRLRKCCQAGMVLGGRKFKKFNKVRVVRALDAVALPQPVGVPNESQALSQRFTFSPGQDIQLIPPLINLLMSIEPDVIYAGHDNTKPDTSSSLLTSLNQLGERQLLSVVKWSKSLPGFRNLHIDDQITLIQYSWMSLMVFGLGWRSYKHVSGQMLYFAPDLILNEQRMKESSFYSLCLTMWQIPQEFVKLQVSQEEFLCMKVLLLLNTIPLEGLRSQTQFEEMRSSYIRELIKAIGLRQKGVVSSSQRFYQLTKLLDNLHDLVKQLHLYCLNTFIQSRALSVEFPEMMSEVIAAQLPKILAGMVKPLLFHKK
In words: Antagonist activity at progesterone receptor in human MCF cells assessed as estradiol-induced receptor response.
For orientation: IC50 means the point on the concentration scale where inhibition reaches its midpoint. On to `C[C@@H]1Cc2c([nH]c3ccccc23)[C@@H](c2ccc(/C=C/C(=O)O)cc2)N1CCO`, for which the IC50 is 2.29 µM.

Turning to `CC/C(=C(\c1ccccc1)c1ccc(/C=C/C(=O)O)cc1)c1ccccc1` [(E)-3-[4-((Z)-1,2-Diphenyl-but-1-enyl)-phenyl]-acrylic acid], the IC50 is 3.98 µM.

`C[C@@H]1Cc2c([nH]c3ccccc23)[C@@H](c2ccc(Cl)cc2)N1CCC(=O)O`: the IC50 amounted to 1.51 µM.

As to `CC/C(=C(\c1ccc(O)cc1)c1ccc(/C=C/C(=O)O)cc1)c1ccccc1` [GW7604], the IC50 is 0.012 µM.

In the case of `C[C@]12CC[C@@H]3c4ccc(O)cc4C[C@@H](CCCCCCCCC[S+]([O-])CCCC(F)(F)C(F)(F)F)[C@H]3[C@@H]1CC[C@@H]2O` (some centres undefined), the IC50 was 0.000209 µM.

In the case of `OCCN1CCc2c([nH]c3ccccc23)C1c1ccc(Cl)cc1` (centres undefined), the IC50 worked out at 2.69 µM.

Regarding `C[C@@H](CO)CN1[C@H](c2ccc(/C=C/C(=O)O)cc2)c2[nH]c3ccccc3c2C[C@H]1C`, the IC50 came to 0.05 µM.

Regarding `C[C@@H]1Cc2c([nH]c3ccccc23)[C@@H](c2ccc(/C=C/C(=O)O)cc2)N1CC(C)(C)F`, the IC50 came to 0.0035 µM.

Regarding `C[C@@H]1Cc2c([nH]c3ccccc23)[C@@H](c2ccc(Cl)cc2)N1C[C@H](C)C(=O)O`, the IC50 was 2.09 µM.

`CC/C(=C(\c1ccc(O)cc1)c1ccc(OCCN(C)C)cc1)c1ccccc1` [[3H]4-OHT]: the IC50 was determined as 0.000794 µM.

With `CC(C)CN1[C@H](c2ccc(/C=C/C(=O)O)cc2)c2[nH]c3ccccc3c2C[C@H]1C`, the IC50 came out at 0.0036 µM.

For `CC(C)CN1[C@H](c2c(F)cc(/C=C/C(=O)O)cc2F)c2[nH]c3ccccc3c2C[C@H]1C`, the IC50 is 0.000832 µM.

Turning to `C[C@@H]1Cc2c([nH]c3ccccc23)[C@@H](c2ccc(Cl)cc2)N1CCO`, the concentration for half-maximal inhibition (IC50) was 0.724 µM.

As for `C[C@@H]1Cc2c([nH]c3ccc(O)cc23)[C@@H](c2ccc(Cl)cc2)N1CCO`, the IC50 was found to be 0.912 µM.

The values are drawn from BindingDB's records for doi:10.1021/acs.jmedchem.5b00984 (Astrazeneca, 2015).
